The record followed here is ChEMBL document CHEMBL2150847, “Scaffold hopping strategy toward original pyrazolines as selective CB₂ receptor ligands” (Eur J Med Chem, 2012).

For test [1], the target named is T1, Cannabinoid receptor 2 (Homo sapiens, UniProt P34972). The test is described as follows: Displacement of [3H]CP55940 from human CB2 receptor expressed in CHO cell membranes after 1 hr by scintillation counting. Background: Displacement assays read how much labelled ligand stays bound in the presence of the test substance.
The target in another test is Cannabinoid receptor 1 (Homo sapiens, UniProt P21554). The test is described as follows: Displacement of [3H]CP55940 from human CB1 receptor expressed in CHO cell membranes after 1 hr by scintillation counting.
The species named for another test is Homo sapiens. Description: Selectivity ratio of Ki for human CB1 receptor to Ki for human CB2 receptor.
Test [2] deals with T1, Cannabinoid receptor 2. Description: Agonist activity at human CB2 receptor expressed in CHO cell membranes after 1 hr by [35S]GTPgammaS binding assay. Type of test: functional. Background: GTPγS is a poorly hydrolysed GTP analogue; its binding reports G protein activation.
Test [3] concerns the target T1, Cannabinoid receptor 2. Description: Agonist activity at human CB2 receptor expressed in CHO cell membranes after 1 hr by [35S]GTPgammaS binding assay relative to baseline. Type of test: functional.
For test [4], the target named is T1, Cannabinoid receptor 2. Description: Antagonist activity at human CB2 receptor expressed in CHO cell membranes after 1 hr by [35S]GTPgammaS binding assay. Type of test: functional.

Calls of active or inactive are those of the source. No cut-off for these calls is given here.

T1 sequence (P34972 whole entry): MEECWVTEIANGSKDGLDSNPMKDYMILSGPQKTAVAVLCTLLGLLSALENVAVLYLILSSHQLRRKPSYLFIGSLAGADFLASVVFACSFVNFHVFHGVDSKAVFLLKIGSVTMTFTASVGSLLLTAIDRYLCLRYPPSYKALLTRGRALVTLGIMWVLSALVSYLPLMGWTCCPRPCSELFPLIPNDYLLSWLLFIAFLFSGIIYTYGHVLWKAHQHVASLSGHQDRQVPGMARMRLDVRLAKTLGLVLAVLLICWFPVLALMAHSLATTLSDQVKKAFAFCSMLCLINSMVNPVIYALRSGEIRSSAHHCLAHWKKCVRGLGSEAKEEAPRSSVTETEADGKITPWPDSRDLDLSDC
Sequence of Cannabinoid receptor 1 (P21554 whole entry): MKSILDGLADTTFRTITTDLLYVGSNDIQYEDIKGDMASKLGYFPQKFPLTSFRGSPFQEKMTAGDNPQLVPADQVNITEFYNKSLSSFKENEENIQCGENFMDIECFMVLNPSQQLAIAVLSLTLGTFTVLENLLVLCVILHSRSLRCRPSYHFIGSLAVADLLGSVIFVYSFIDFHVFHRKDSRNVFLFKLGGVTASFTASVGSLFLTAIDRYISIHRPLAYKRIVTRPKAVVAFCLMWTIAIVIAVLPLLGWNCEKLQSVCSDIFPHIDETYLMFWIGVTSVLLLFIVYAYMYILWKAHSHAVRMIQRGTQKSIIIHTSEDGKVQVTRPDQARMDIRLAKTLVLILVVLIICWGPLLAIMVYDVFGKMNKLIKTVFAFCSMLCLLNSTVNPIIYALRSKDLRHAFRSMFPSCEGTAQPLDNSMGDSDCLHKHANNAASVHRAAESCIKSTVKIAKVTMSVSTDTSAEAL

In general, Ki refers to a dissociation constant, usually derived from enzyme kinetics or from competition with a known ligand. Low readings indicate a stronger hold on the target, high ones a looser hold on the target. Turning to `Cc1ccc(CC2CN(C(=O)Nc3ccccc3)N=C2c2ccc(Cl)c(C)c2)cc1` (configuration not stated), the figures for the Ki on Cannabinoid receptor 2 [1] and on Cannabinoid receptor 1 were > 1 µM and > 3 µM, respectively.
By EC50 is commonly meant the concentration needed to bring the measured effect to its halfway point. A higher EC50 goes with a less potent agent. In general, Emax refers to the maximal effect, on the per cent scale that the assay sets. As to `Cc1cc(C2=NN(C(=O)NC3C4(C)CCC(C4)C3(C)C)CC2Cc2ccccc2)ccc1Cl` (configuration not stated), in the test listed under Homo sapiens, the Ratio Ki was > 4. Also, the Ki is 0.689 µM at Cannabinoid receptor 2 [1] and > 1 µM at Cannabinoid receptor 1. Also, it took 0.749 µM to reach a half-maximal effect on Cannabinoid receptor 2 [2] (EC50). Further, the maximum response (Emax) at Cannabinoid receptor 2 [3] was 183%.
Turning to `Cc1cc(C2=NN(C(=O)Nc3ccccc3)CC2Cc2ccccc2)ccc1Cl` (configuration not stated), the inhibition constant (Ki) on Cannabinoid receptor 2 [1] and on Cannabinoid receptor 1 was > 3 µM throughout.
Consider `Cc1ccc(CC2CN(C(=O)NC3CCCCC3)N=C2c2ccc(Cl)c(C)c2)cc1` (configuration not stated), for which the Ratio Ki in the test listed under Homo sapiens was > 8. In addition, the Ki on Cannabinoid receptor 2 [1] was 0.385 µM; at Cannabinoid receptor 1, > 3 µM. The 50% effective concentration (EC50) at Cannabinoid receptor 2 [2] stood at 0.371 µM. Besides, at Cannabinoid receptor 2 [3], the Emax stood at 187%.
`O=C(Nc1ccccc1)N1CC(Cc2ccccc2)C(c2ccccc2)=N1` (configuration not stated): the Ki on Cannabinoid receptor 2 [1] and at Cannabinoid receptor 1 was > 3 µM in each case.
With `Cc1cc(C2=NN(C(=O)NC3CCCCC3)CC2Cc2ccccc2)ccc1Cl` (configuration not stated), the Ki at Cannabinoid receptor 2 [1] was > 1 µM; on Cannabinoid receptor 1 it was > 3 µM.
For `CC(=O)N1CC(Cc2ccccc2)C(c2ccccc2)=N1` (configuration not stated), in that order: > 3 µM and > 3 µM.
For `Cc1ccc(CC2CN(C(=O)NC3C4(C)CCC(C4)C3(C)C)N=C2c2ccc(Cl)c(C)c2)cc1` (configuration not stated), the Ratio Ki in the test filed under Homo sapiens is > 4. In addition, the figures for the Ki on Cannabinoid receptor 2 [1] and at Cannabinoid receptor 1 were 0.251 µM and > 1 µM, respectively. For the same compound, the midpoint of the response on Cannabinoid receptor 2 [2], the EC50, lay at 0.191 µM. Besides, the Emax on Cannabinoid receptor 2 [3] came to 163%.
With `O=C(NC1CCCCC1)N1CC(Cc2ccccc2)C(c2ccccc2)=N1` (configuration not stated), the Ratio Ki in the test listed under Homo sapiens is > 6. Further, the inhibition constant Ki was 0.504 µM on Cannabinoid receptor 2 [1] and > 3 µM at Cannabinoid receptor 1. At Cannabinoid receptor 2 [2], this compound yielded a half-maximal effective concentration (EC50) of 0.297 µM. The compound also had an Emax at Cannabinoid receptor 2 [3] of 136%.
As for `Cc1cccc(C2=NN(C(=O)Nc3ccccc3)CC2Cc2ccccc2)c1` (configuration not stated), the inhibition constant (Ki) at Cannabinoid receptor 2 [1] and at Cannabinoid receptor 1 was > 3 µM in each case.
Consider `Cc1cc(C2=NN(C(=O)NC3CCCCC3)CC2C2CCCC2)ccc1Cl` (configuration not stated), for which, in the test filed under Homo sapiens, the Ratio Ki worked out at 1.2. For the same compound, the values for the Ki on Cannabinoid receptor 2 [1] and on Cannabinoid receptor 1 were 3.64 µM and > 3 µM, respectively. Further, at Cannabinoid receptor 2 [4], the outcome was Active.
For the compound `Cc1cccc(C2=NN(C(=O)NC3CCCCC3)CC2Cc2ccccc2)c1` (configuration not stated), the inhibition constant (Ki) on Cannabinoid receptor 2 [1] and on Cannabinoid receptor 1 was > 3 µM throughout.
On to `O=C(Nc1ccccc1)N1CC(Cc2ccccc2)C(c2ccc(Cl)cc2)=N1` (configuration not stated), for which the inhibitory constant (Ki) on Cannabinoid receptor 2 [1] and at Cannabinoid receptor 1 was > 3 µM throughout.
Take `O=C(NC1CCCCC1)N1CC(Cc2ccccc2)C(c2ccc(Cl)cc2)=N1` (configuration not stated): the inhibition constant Ki on Cannabinoid receptor 2 [1] and at Cannabinoid receptor 1 was > 3 µM throughout.
